In ChEMBL document CHEMBL4477239 (Bioorg Med Chem, 2016) one finds IC50 data, which are given here for 34 compounds.

For one assay, the system named is NCI-H1993. Kind of assay: Cytotoxicity against human NCI-H1993 cells assessed as growth inhibition after 72 hrs by CCK-8 assay. To be noted: NCI-H1993, 72 h.
Assay [1] concerns the target Hepatocyte growth factor receptor (Homo sapiens, UniProt P08581).
Description: Inhibition of c-Met kinase (unknown origin) assessed as decrease in phosphorylation of TK substrate-biotin peptide preincubated for 5 to 10 mins followed by ATP addition measured after 30 mins by HTRF assay

Chain of Hepatocyte growth factor receptor (P08581 whole entry): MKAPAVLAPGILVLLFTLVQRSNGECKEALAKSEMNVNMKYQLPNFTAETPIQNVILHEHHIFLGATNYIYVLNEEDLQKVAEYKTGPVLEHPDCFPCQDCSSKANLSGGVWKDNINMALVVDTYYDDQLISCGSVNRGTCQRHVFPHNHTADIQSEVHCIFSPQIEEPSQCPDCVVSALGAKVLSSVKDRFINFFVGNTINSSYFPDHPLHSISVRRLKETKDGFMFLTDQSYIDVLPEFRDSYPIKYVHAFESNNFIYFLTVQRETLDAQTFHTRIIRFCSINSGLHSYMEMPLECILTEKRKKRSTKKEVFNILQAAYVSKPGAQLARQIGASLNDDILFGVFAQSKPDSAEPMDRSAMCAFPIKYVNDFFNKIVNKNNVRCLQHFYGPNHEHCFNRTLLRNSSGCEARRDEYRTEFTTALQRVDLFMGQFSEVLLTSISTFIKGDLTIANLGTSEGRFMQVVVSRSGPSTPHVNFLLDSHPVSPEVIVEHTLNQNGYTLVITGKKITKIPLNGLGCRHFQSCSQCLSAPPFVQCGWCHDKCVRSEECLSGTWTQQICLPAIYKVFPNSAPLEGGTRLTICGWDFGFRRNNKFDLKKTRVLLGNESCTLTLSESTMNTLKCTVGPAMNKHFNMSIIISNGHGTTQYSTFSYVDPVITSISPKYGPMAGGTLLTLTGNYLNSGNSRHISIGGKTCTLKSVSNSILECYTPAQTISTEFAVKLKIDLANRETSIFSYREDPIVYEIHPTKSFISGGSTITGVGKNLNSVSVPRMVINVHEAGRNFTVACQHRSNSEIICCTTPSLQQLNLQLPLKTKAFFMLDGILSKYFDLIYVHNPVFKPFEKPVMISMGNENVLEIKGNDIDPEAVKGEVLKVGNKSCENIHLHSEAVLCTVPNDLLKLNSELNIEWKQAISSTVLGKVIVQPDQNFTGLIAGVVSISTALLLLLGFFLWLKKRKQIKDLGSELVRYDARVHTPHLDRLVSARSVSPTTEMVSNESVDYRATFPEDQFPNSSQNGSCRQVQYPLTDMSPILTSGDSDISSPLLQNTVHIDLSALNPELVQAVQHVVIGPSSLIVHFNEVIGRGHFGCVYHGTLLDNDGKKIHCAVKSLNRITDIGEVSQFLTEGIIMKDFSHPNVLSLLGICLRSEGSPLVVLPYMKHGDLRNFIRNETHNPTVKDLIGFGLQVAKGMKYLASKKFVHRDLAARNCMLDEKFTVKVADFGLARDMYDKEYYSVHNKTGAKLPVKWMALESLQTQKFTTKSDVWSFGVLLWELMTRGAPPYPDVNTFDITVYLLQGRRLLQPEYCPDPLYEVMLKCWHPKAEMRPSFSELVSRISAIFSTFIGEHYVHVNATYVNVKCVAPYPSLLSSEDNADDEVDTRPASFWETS

Consider `Cn1cc(-c2cnc3ncn(Cc4ccc5ncccc5c4)c3n2)cn1`, for which the half-inhibitory concentration (IC50) in the assay on NCI-H1993 was 617 nM.
As to `Cn1cc(-c2cnc3nc(O)n(Cc4ccc5ncccc5c4)c3n2)cn1`, the IC50 was over 1000 nM in assay [1] and over 10000 nM in the assay with NCI-H1993.
The compound `CCC(c1cc2cccnc2cc1F)n1cnc2ncc(-c3cnc4ccccc4c3)nc21` (stereo unspecified) returned an IC50 in assay [1] of 17.2 nM.
The compound `CCC(c1ccc2ncccc2c1F)n1cnc2ncc(-c3ccc(C(=O)NC)c(F)c3)nc21` (stereo unspecified) came in with an IC50 in assay [1] of 7.7 nM.
Same read-out and setting: the figure for `CCC(c1cc2cccnc2cc1F)n1cnc2ncc(-c3ccc(C(=O)OC)c(F)c3)nc21` (stereo unspecified) is 18.1 nM.
On the same count and under the same terms, then `CC(c1c(F)cc2ncccc2c1F)n1cnc2ncc(-c3cccc4ccccc34)nc21` (stereo unspecified), with 23.8 nM; and `COC(=O)c1ccc(-c2cnc3ncn(C(C)c4ccc5ncccc5c4C)c3n2)cc1F` (stereo unspecified), with 5.9 nM; and `CCC(c1ccc2ncccc2c1F)n1cnc2ncc(-c3ccccc3)nc21` (stereo unspecified), with 81 nM.
Still for that read-out and setting: the figure for `Cc1cc2ncccc2cc1C(C)n1cnc2ncc(-c3cnc4ccccc4c3)nc21` (stereo unspecified) is 38.1 nM.
In assay [1], `CCC(c1cc2cccnc2cc1F)n1cnc2ncc(-c3cnn(C)c3)nc21` (stereo unspecified) had an IC50 of 10.6 nM.
In turn, `CCC(c1cc2cccnc2cc1F)n1cnc2ncc(-c3cnn(CCO)c3)nc21` (stereo unspecified) came in with an IC50 in assay [1] of 9.3 nM.
In the case of `OCCn1cc(-c2cnc3ncn(Cc4ccc5ncccc5c4)c3n2)cn1`, the IC50 in assay [1] came to 15.9 nM; in the assay with NCI-H1993 it was 2320 nM.
In assay [1], `Cc1cc2ncccc2cc1C(C)n1cnc2ncc(-c3cnn(C)c3)nc21` (stereo unspecified) gave a half-inhibitory concentration (IC50) of 32.6 nM.
As to `CNC(=O)c1ccc(-c2cnc3ncn(C(C)c4cc5cccnc5cc4C)c3n2)cc1F` (stereo unspecified), half-maximal inhibition in assay [1] (IC50) required 31 nM.
The compound `CCC(c1ccc2ncccc2c1F)n1cnc2ncc(-c3cnn(C)c3)nc21` (stereo unspecified) returned a half-inhibitory concentration (IC50) in assay [1] of 13.5 nM.
Turning to `CCC(c1ccc2ncccc2c1F)n1cnc2ncc(-c3ccc(C(=O)OC)c(F)c3)nc21` (stereo unspecified), the 50% inhibitory concentration (IC50) in assay [1] worked out at 39.2 nM.
Consider `c1cnc2ccc(Cn3cnc4ncc(-c5cn[nH]c5)nc43)cc2c1`, for which the figures for the half-maximal inhibitory concentration (IC50) (in assay [1]; with NCI-H1993) were 13.2 nM and 2890 nM, respectively.
Taken in the same sequence, the figures for `Oc1nc2ncc(-c3ccncc3)nc2n1Cc1ccc2ncccc2c1` were over 1000 nM and over 10000 nM.
`CCC(c1ccc2ncccc2c1F)n1cnc2ncc(-c3cnn(CCO)c3)nc21` (stereo unspecified) returned an IC50 in assay [1] of 22.5 nM.
For the compound `Oc1nc2ncc(-c3ccccc3)nc2n1Cc1ccc2ncccc2c1`, the concentration for half-maximal inhibition (IC50) was over 1000 nM in assay [1] and over 10000 nM with NCI-H1993.
`CCC(c1ccc2ncccc2c1F)n1cnc2ncc(-c3cnc4ccccc4c3)nc21` (stereo unspecified) gave an IC50 in assay [1] of 16.4 nM.
The same measure, in the same setting: then `CCC(c1cc2cccnc2cc1F)n1cnc2ncc(-c3ccc(C(=O)NC)c(F)c3)nc21` (stereo unspecified), with 9.4 nM.
For `Cn1nccc1-c1cnc2ncn(Cc3ccc4ncccc4c3)c2n1`, the IC50 in assay [1] stood at 66.6 nM; in the assay on NCI-H1993 it was 7910 nM.
In assay [1], `CCC(c1ccc2ncccc2c1F)n1cnc2ncc(-c3cn[nH]c3)nc21` (stereo unspecified) had an IC50 of 37.7 nM.
Same read-out and setting: then `Cc1cc2ncccc2cc1C(C)n1cnc2ncc(-c3ccc(C(N)=O)c(F)c3)nc21` (stereo unspecified), with 11.7 nM; and `CCC(c1cc2cccnc2cc1F)n1cnc2ncc(-c3ccccc3)nc21` (stereo unspecified), with 28.1 nM.
For `Cc1nc2ncc(-c3cnn(C)c3)nc2n1Cc1ccc2ncccc2c1`, the concentration for half-maximal inhibition (IC50) in assay [1] is 641 nM; in the assay with NCI-H1993, over 10000 nM.
With `COC(=O)c1ccc(-c2cnc3ncn(C(C)c4cc5cccnc5cc4C)c3n2)cc1F` (stereo unspecified), the IC50 in assay [1] came out at 64.5 nM.
The same measure, in the same setting: the figure for `CCC(c1cc2cccnc2cc1F)n1cnc2ncc(-c3cn[nH]c3)nc21` (stereo unspecified) is 8.7 nM; for `CCC(c1cc2cccnc2cc1F)n1cnc2ncc(-c3ccncc3)nc21` (stereo unspecified) it is 14.1 nM.
`CCC(c1ccc2ncccc2c1F)n1cnc2ncc(-c3ccncc3)nc21` (stereo unspecified) showed an IC50 in assay [1] of 100 nM.
On the same count and under the same terms, then `Cc1cc2ncccc2cc1C(C)n1cnc2ncc(-c3ccncc3)nc21` (stereo unspecified), with 68.3 nM.
Still for that read-out and setting: the figure for `CC(c1cc(F)c2ncccc2c1)n1cnc2ncc(-c3cccc4ccccc34)nc21` (stereo unspecified) is over 1000 nM.
Consider `OCCn1cc(-c2cnc3nnn(Cc4ccc5ncccc5c4)c3n2)cn1` [PF-04217903], for which the IC50 with NCI-H1993 stood at 33.6 nM.
